Read-outs that look alike come from different tables or passages of the source. Each block holds one molecule with its values, some of them ahead of it.
How the values were obtained:
[1] = tested on: human patient-derived xenografts; experiment: Xenograft-derived chemical screen (Supplemental Table 3); assay type: cell-based; conditions: for IC50: read-out: IC50 Value
Experimental: Three chemical screens were applied to the U23674 primary tumor cell culture. […] The target inhibition profile is a quantified description of the inhibitory properties of the compound on the numerous protein targets preset on the PPTI screen.
To screen the chemical agents, cell cultures were plated in 384 well plates at a seeding density of 2000 cells per well over graded concentrations of the numerous compounds. The chemical concentrations were between 10 nM and […] depending on the activity range of the compounds. The cells were incubated in DMEM supplemented with 1% penicillin streptomycin, and 10% fetal bovine serum for 72 hours. Chemical sensitivity was determined by an MTS cell viability assay after the 72 hour incubation period. The sensitivity responses at the different concentrations were used to determine the chemical IC50 using a hill curve fitting algorithm with variable hill slope coefficients.

DIPG neurospheres [2] = experiment: cells; conditions: for viability at 10 µM: read-out: cell viability (cytocidal)
Experimental: Primary cultures of DIPG neurospheres were added to 384 well plates pre-plated with 60 known drugs in an increasing gradient of concentrations. […] To complete this drug screen, primary cultures of nestin […] 53 deficient DIPG neurospheres were added to plates with 60 known drug samples in an increasing gradient of concentrations.

DIPG neurospheres [3] = experiment: Cellular viability assay (CellTiter-Glo Luminescent Cell Viability Assay); assay type: cell-based, mouse; conditions: 48 hours
Experimental: A bromodeoxyuridine (BrdU) based cell proliferation ELISA assay kit (Roche) was used for proliferation and processed according to the manufacturer's protocol. […] Viability was measured with CellTiter-Glo Luminescent Cell Viability Assay (# G7572, Promega) per manufacturer's protocol, luminescence values were obtained using Turner Biosystems Modulus Microplate luminometer (model 9300-062). All values are given as mean+/−SD of at least 3 independent experiments.

DIPG-bearing mice = assay type: in vivo
Experimental: All experiments were performed under the Institutional Animal Care and Use Committee and Institutional Review Board of Duke University approved protocol (A239-10-9 and A214-13-8). Mice were maintained under barrier conditions. Nestin tv-a (Ntv-a) p53^fl/fl mice were injected with DF1 cells expressing RCAS-PDGF-B+RCAS-Cre as described above. Three weeks post injection; […]. Mice were treated with 25 mg/kg BID for 6 doses. Loss of 25% of body weight, lethargy, head tilt, or seizure development was used as euthanasia criteria during the treatment window. Four hours after completion of the 6th dose, treated animals were euthanized and tumor tissue was extracted as described above.
Tumor samples embedded in paraffin were then sectioned on a Leica RM2235 microtome at […] thickness. Immunohistochemistry was performed using Discovery XT (Ventana Medical Systems). Sections were immunostained for cleaved caspase 3 (Asp175) (Cell Signaling #9661) and anti-phospho-histone H3 (Ser10) (Millipore 06-570) to allow for evaluation of apoptosis and proliferation, respectively.
Image analysis was completed using MetaMorph 6.1 software (Universal Imaging Corp.; Downingtown, Pa.) to quantify immunostaining on previously imaged sections for each injected animal. These images were thresholded using the HSI color representation method in the Set Color Threshold window. This method has previously been validated by Maximova et. al.. This is a multidimensional evaluation of the hue, saturation, and intensity of each individual pixel making up an image with a range from 0-255. Once color thresholds had been established that were able to define all nucleated cells and only positively labeled cells, each of the ten images per injected animal were quantified for (per 40× high powered field): total nucleated cell area, total nucleated cell count, total positive cell area, total positive cell count. […] The averages for each animal of each of these parameters were then transferred to GraphPad Prism 5 software (GraphPad Software, San Diego, Calif.) where a Mann-Whitney-U t-test was performed on each analyzed parameter to determine statistical significance.

U23674 cells = experiment: Four-arm orthotropic allograft study, survival; assay type: in vivo, mouse; conditions: 50 mg/kg OSI-906, 150 mg/kg GDC-0941, oral gavage; compared to vehicle and other arms
[4] = Homo sapiens, 60 agent PPTI screen
[5] = 48 h, read-out: In Vitro Absolute IC50

IC50 [1, 4]: 2660 nM
SMILES: CN(C)CC[C@H](CSc1ccccc1)Nc1ccc(S(=O)(=O)NC(=O)c2ccc(N3CCN(Cc4ccccc4-c4ccc(Cl)cc4)CC3)cc2)cc1[N+](=O)[O-] [ABT-737]

IC50 [1, 4]: 1030 nM
SMILES: CCNC(=O)c1noc(-c2cc(C(C)C)c(O)cc2O)c1-c1ccc(CN2CCOCC2)cc1 [AUY922]

IC50 Value ([1]; 60 agent PPTI screen): >conc tested
SMILES: CNC(=O)CN1CCC(Oc2cc3c(Nc4cccc(Cl)c4F)ncnc3cc2OC)CC1 [AZD-8931]

IC50 Value ([1]; 60 agent PPTI screen): >conc tested
SMILES: Cn1c(=O)n(-c2ccc(C(C)(C)C#N)cc2)c2c3cc(-c4cnc5ccccc5c4)ccc3ncc21 [BEZ235]

IC50 (DIPG neurospheres [2]; [5]): 3950 nM
IC50 [1, 4]: 6810 nM
SMILES: COc1cc2nc(N3CCCN(C)CC3)nc(NC3CCN(Cc4ccccc4)CC3)c2cc1OC [BIX-01294]
viability at 10 µM (DIPG neurospheres [2]): < 15%

SMILES: C[C@@]1(C(=O)Nc2ccc(F)nc2)CCCN1c1nc(Nc2cc(C3CC3)n[nH]2)c2cccn2n1 [BMS-754807]
concentration giving significant reduction of viability (DIPG neurospheres [3]): ≥ 0.1 µM
IC50 (DIPG neurospheres [2]; [5]): 97.4 nM
IC50 (DIPG neurospheres [2]; Mus musculus, read-out: in vitro IC50 in the high throughput drug screen): 90 nM
viability at 10 µM (DIPG neurospheres [2]): < 15%
IC50 ([1]; Homo sapiens): 1730 nM
apoptosis, cleaved caspase 3 positive cells (DIPG-bearing mice; 25 mg/kg BID for 6 doses, intraperitoneal, mean, p=0.0435 vs vehicle): 1.063+/−0.1925 percentage of cell per high powered filed
DIPG proliferation, phosphorylated histone-3 (serine 10) positive cells (DIPG-bearing mice; 25 mg/kg BID for 6 doses, intraperitoneal, mean, p=0.8421 vs vehicle): 9.632+/−2.827 percentage of cell per high powered filed
blood brain barrier crossing (DIPG-bearing mice; mouse, in vivo): able to cross the blood brain barrier
tolerability in mice undergoing treatment (DIPG-bearing mice; mouse, in vivo): well tolerated

IC50 (DIPG neurospheres [2]; [5]): 834 nM
IC50 [1, 4]: 860 nM
SMILES: CC(C)C[C@H](NC(=O)[C@H](CCc1ccccc1)NC(=O)CN1CCOCC1)C(=O)N[C@@H](Cc1ccccc1)C(=O)N[C@@H](CC(C)C)C(=O)[C@@]1(C)CO1 [Carfilzomib]
viability at 10 µM (DIPG neurospheres [2]): < 15%

IC50 (DIPG neurospheres [2]; [5]): 6230 nM
IC50 [1, 4]: 5140 nM
SMILES: C[C@@H](Oc1cc(-c2cnn(C3CCNCC3)c2)cnc1N)c1c(Cl)ccc(F)c1Cl [Crizontinib, crizotinib]
viability at 10 µM (DIPG neurospheres [2]): < 15%

IC50 ([1]; 60 agent PPTI screen): 7380 nM
SMILES: CN(C)c1ccccc1CN1CCCN(Cc2ccccc2N(C)C)C1c1ccncc1 [GANT61]

SMILES: CS(=O)(=O)N1CCN(Cc2cc3nc(-c4cccc5[nH]ncc45)nc(N4CCOCC4)c3s2)CC1 [GDC-0941]
survival of mice (endpoint tumor volume 1.4 cc) (U23674 cells): no better than survival of mice only treated with vehicle

IC50 [1, 4]: 5490 nM
SMILES: NC1(c2ccc(-c3nc4ccn5c(=O)[nH]nc5c4cc3-c3ccccc3)cc2)CCC1 [MK-2206]

IC50 Value ([1]; 60 agent PPTI screen): >conc tested
SMILES: CC(=O)N[C@@H](CS)C(=O)O [NAC, N-acetyl cysteine]

IC50 (DIPG neurospheres [2]; [5]): 159 nM
SMILES: COC1=CC(c2cc3ccccc3[nH]2)=N/C1=C\c1[nH]c(C)cc1C [Obatoclax]
viability at 10 µM (DIPG neurospheres [2]): < 15%

IC50 Value ([1]; 60 agent PPTI screen): >conc tested
SMILES: CN(c1ncccc1CNc1nc(Nc2ccc3c(c2)CC(=O)N3)ncc1C(F)(F)F)S(C)(=O)=O [PF-562271]

IC50 Value ([1]; 60 agent PPTI screen): >conc tested
SMILES: CC(C)(C(=O)NCC(F)(F)C(F)(F)F)C(=O)N[C@@H]1C(=O)Nc2ccccc2-c2ccccc21 [RO4929097]

IC50 Value ([1]; 60 agent PPTI screen): >conc tested
SMILES: NC(=O)c1ccc(-c2nc(-c3ccc4c(c3)OCO4)c(-c3ccccn3)[nH]2)cc1 [SB-431542]

IC50 Value ([1]; 60 agent PPTI screen): >conc tested
SMILES: CCOc1cc(/C=C2/C(=O)N(c3ccccc3)N=C2C)cc(Cl)c1OCC(=O)OC [SJ-172550]

IC50 (DIPG neurospheres [2]; [5]): 505 nM
IC50 Value ([1]; 60 agent PPTI screen): >conc tested
SMILES: CC(C)(C)c1cnc(CSc2cnc(NC(=O)C3CCNCC3)s2)o1 [SNS-032]
viability at 10 µM (DIPG neurospheres [2]): < 15%

IC50 (DIPG neurospheres [2]; [5]): 6920 nM
SMILES: CCN(CC)CCNC(=O)c1c(C)[nH]c(/C=C2\C(=O)Nc3ccc(F)cc32)c1C [Sunitinib]
viability at 10 µM (DIPG neurospheres [2]): < 15%

IC50 Value ([1]; 60 agent PPTI screen): >conc tested
SMILES: N#Cc1ccc(COC[C@H]2O[C@@H](n3c(NCc4ccc(Cl)c(Cl)c4)nc4c(N)ncnc43)[C@H](O)[C@@H]2O)cc1 [VER-155008]

IC50 Value ([1]; 60 agent PPTI screen): >conc tested
SMILES: COc1cc(Nc2ncc3c(n2)-c2ccc(Cl)cc2C(c2c(F)cccc2OC)=NC3)ccc1C(=O)O [alisertib]

IC50 Value ([1]; 60 agent PPTI screen): >conc tested
SMILES: CN1CC[C@H](c2c(O)cc(O)c3c(=O)cc(-c4ccccc4Cl)oc23)[C@H](O)C1 [alvocidib]

IC50 [1, 4]: 821 nM
SMILES: CC(C)C[C@H](NC(=O)[C@H](Cc1ccccc1)NC(=O)c1cnccn1)B(O)O [bortezomib]

IC50 Value ([1]; 60 agent PPTI screen): >conc tested
SMILES: COc1cc2c(Oc3ccc4[nH]c(C)cc4c3F)ncnc2cc1OCCCN1CCCC1 [cediranib]

IC50 Value ([1]; 60 agent PPTI screen): >conc tested
SMILES: CC(C)[C@H]1C(=O)N[C@@H](CCCN=C(N)N)C(=O)NCC(=O)N[C@@H](CC(=O)O)C(=O)N[C@H](Cc2ccccc2)C(=O)N1C [cilengitide]

IC50 [1, 4]: 1790 nM
SMILES: Nc1ccccc1NC(=O)c1ccc(CNC(=O)OCc2cccnc2)cc1 [entinostat]

IC50 Value ([1]; 60 agent PPTI screen): >conc tested
SMILES: Cn1cc(C2=C(c3cn(C4CCN(Cc5ccccn5)CC4)c4ccccc34)C(=O)NC2=O)c2ccccc21 [enzastaurin]

IC50 Value ([1]; 60 agent PPTI screen): >conc tested
SMILES: CC1=C(/C=C/C(C)=C/C=C/C(C)=C/C(=O)Nc2ccc(O)cc2)C(C)(C)CCC1 [fenretinide]

IC50 [1, 4]: 5150 nM
SMILES: COc1cc(Nc2ncc(F)c(Nc3ccc4c(n3)N(COP(=O)(O)O)C(=O)C(C)(C)O4)n2)cc(OC)c1OC [fostamatinib]

IC50 Value ([1]; 60 agent PPTI screen): >conc tested
SMILES: CS(=O)(=O)CCNCc1ccc(-c2ccc3ncnc(Nc4ccc(OCc5cccc(F)c5)c(Cl)c4)c3c2)o1 [lapatinib]

IC50 Value ([1]; 60 agent PPTI screen): >conc tested
SMILES: Nc1cccc2c1CN(C1CCC(=O)NC1=O)C2=O (stereo not drawn) [lenalidomide]

IC50 Value ([1]; 60 agent PPTI screen): >conc tested
SMILES: Cc1cn(-c2cc(NC(=O)c3ccc(C)c(Nc4nccc(-c5cccnc5)n4)c3)cc(C(F)(F)F)c2)cn1 [nilotinib]

IC50 [1, 4]: 245 nM
SMILES: Cc1[nH]c2ccccc2c1CCNCc1ccc(/C=C/C(=O)NO)cc1 [panobinostat]

IC50 Value ([1]; 60 agent PPTI screen): >conc tested
SMILES: CCOc1cc2ncc(C#N)c(Nc3ccc(F)c(Cl)c3)c2cc1NC(=O)/C=C/CN(C)C [pelitinib]

IC50 [1, 4]: 4920 nM
SMILES: CCN(CC)CCCC(C)Nc1c2ccc(Cl)cc2nc2ccc(OC)cc12 (stereo not drawn) [quinacrine]

SMILES: CCCC(=O)[O-].[Na+] [sodium butyrate]
IC50 Value ([1]; 60 agent PPTI screen): >conc tested

IC50 [1, 4]: 6130 nM
SMILES: CNC(=O)c1cc(Oc2ccc(NC(=O)Nc3ccc(Cl)c(C(F)(F)F)c3)cc2)ccn1 [sorafenib]

IC50 Value ([1]; 60 agent PPTI screen): >conc tested
SMILES: CO[C@H]1C[C@@H]2CC[C@@H](C)[C@@](O)(O2)C(=O)C(=O)N2CCCC[C@H]2C(=O)O[C@H]([C@H](C)C[C@@H]2CC[C@@H](OC(=O)C(C)(CO)CO)[C@H](OC)C2)CC(=O)[C@H](C)/C=C(\C)[C@@H](O)[C@@H](OC)C(=O)[C@H](C)C[C@H](C)/C=C/C=C/C=C/1C [temsirolimus]

IC50 Value ([1]; 60 agent PPTI screen): >conc tested
SMILES: Cc1cc(Nc2cc(N3CCN(C)CC3)nc(Sc3ccc(NC(=O)C4CC4)cc3)n2)[nH]n1 [tozasertib]

IC50 Value ([1]; 60 agent PPTI screen): >conc tested
SMILES: CC1=C(/C=C/C(C)=C/C=C/C(C)=C/C(=O)O)C(C)(C)CCC1 [tretinoin]

IC50 ([1]; 60 agent PPTI screen): 5520 nM
SMILES: CC(/C=C/C(=O)NO)=C\[C@@H](C)C(=O)c1ccc(N(C)C)cc1 [trichostatin A]

IC50 [1, 4]: 3040 nM
SMILES: COc1cc2c(Nc3ccc(Br)cc3F)ncnc2cc1OCC1CCN(C)CC1 [vandetanib]

IC50 Value ([1]; 60 agent PPTI screen): >conc tested
SMILES: C[C@]1(c2nc3c(C(N)=O)cccc3[nH]2)CCCN1 [veliparib]

IC50 Value ([1]; 60 agent PPTI screen): >conc tested
SMILES: CS(=O)(=O)c1ccc(C(=O)Nc2ccc(Cl)c(-c3ccccn3)c2)c(Cl)c1 [vismodegib]

IC50 Value ([1]; 60 agent PPTI screen): >conc tested
SMILES: COc1nc(C)cnc1NS(=O)(=O)c1cccnc1-c1ccc(-c2nnco2)cc1 [zibotentan]
